Reference: patent US6829540B1, “Drug discovery using multiple membrane mimetic affinities” (priority 1997, dated 2004)
Read-outs that look alike come from different tables or passages of the source.

How the values were obtained:
[1] = cited from earlier work
[2] = HPLC membrane binding on immobilized artificial membrane IAM.PE; assay type: physicochemical; details: for Membrane affinity IAM.PE: Ln weighted, Table 3; for Membrane binding properties IAM.PE: Table 1
Procedure: (§1) The analysis is made by pattern matching membrane binding constants measured on immobilized artificial membrane columns in a high performance liquid chromatography system. Two or more immobilized artificial membrane chromatographic columns are used. Each test compound is injected and chromatographed on each column and the peak width and the peak time of the test compound is recorded and normalized to an internal or external standard. Thus experimentally measured selectivity values (αk′=k′/k′ standard) and normalized standard deviations (αsd=σ/σstandard) were calculated for both the test compounds and compounds of known biological properties. Pattern matching using vector calculus, multivariate analysis or principal component analysis of the αk′ and αsd values of the test compound and the control compounds allows comparison of the membrane binding properties of the test compounds and each of the control compounds or, if the control compounds all have a common biological activity/property, average or mean membrane binding values of the set of control compounds for each membrane surface.
(§2) Membrane binding constants (k′ values) are calculated in accordance with the formula k′=(tr−t0)/t0 wherein tr is the retention time and t0 is the dead time obtained from each injection; however, t0 in the denominator was obtained by averaging the experimentally determined t0 from all injections for each day the data are collected.
(§3) The use of chromatography on immobilized artificial membranes provides data characteristic of both equilibrium binding to the respective membrane mimetic surface (k′ values) and the kinetics of mass transfer between the immobilized artificial membrane surface and the mobile phase (i.e. δ values). […] This unavoidable variation in the experimentally determined k′ and δ values for each test compound and each control compound is eliminated, for pattern matching purposes, by normalizing k′ and δ values to an internal or external standard compound chromatographed on each immobilized artificial membrane column. Thus k′ and δ values for the test compounds are each divided by the respective k′ and δ values of the standard to calculate αk′ and αsd, the selectivity values and normalized standard deviations, respectively. For k′ values, α denotes the selectivity of the immobilized artificial membrane chromatographic surface for molecular recognition of the analyte; α is a thermodynamic property and corresponds to a ratio of membrane partition coefficients.
(§4) Thus, in one embodiment of this invention the membrane binding properties of six hallucinogens were measured on immobilized artificial membranes (IAMs) prepared from phosphatidylcholine (IAM.PC), phosphatidylserine (IAM.PS), phosphatidylethanolamine (IAM.PE), and sphingomyelin (IAM.SM). Mean vectors were calculated for several therapeutic classes of compounds. The calculated mean vector (i.e., the average vector representing a group of compounds with similar biological activity) is shown in Table 1 for hallucinogenic compounds.
(§5) In one embodiment of this invention membrane binding constants are measured by injecting the drugs into high performance liquid chromatographs (HPLC) using immobilized artificial membrane (IAM) columns using the following IAM stationary phases:
(§6) ^esterIAM.PC^C10/C3, ^esterIAM.PE^C10/C3, ^esterIAM.PS^C10/C3, and ^esterIAM.SM^C10/C3
(§7) The peak position of the drug in the chromatogram is a measure of the affinity of the compound for the immobilized membrane surface. The retention time (peak time) was used to calculate the capacity factor, k′, of the compound for the IAM surface. Capacity factors are proportional to equilibrium membrane binding constants K according to
(§8) Membrane binding data (numerical values relating to interaction with membranes or membrane mimetic surfaces) were obtained using HPLC chromatography on a multiplicity of membrane mimetic surfaces, preferably immobilized artificial membranes (IAMs). […]

[3] = HPLC membrane binding on immobilized artificial membrane IAM.SM; assay type: physicochemical; details: for Membrane affinity IAM.SM: Ln weighted, Table 3; for Membrane binding properties IAM.SM: Table 1
Procedure: as §1, §2, §3, §4, §5, §6, §7, §8

[4] = HPLC membrane binding on immobilized artificial membrane IAM.PS; assay type: physicochemical; details: for Membrane affinity IAM.PS: Ln weighted, Table 3; for Membrane binding properties IAM.PS: Table 1
Procedure: as §1, §2, §3, §4, §5, §6, §7, §8

[5] = HPLC membrane binding on immobilized artificial membrane IAM.PC; assay type: physicochemical; details: for Membrane affinity IAM.PC: Ln weighted, Table 3; for Membrane binding properties IAM.PC: Table 1
Procedure: as §1, §2, §3, §4, §5, §6, §7, §8

[6] = Table 7, compounds completely absorbed
[7] = Table 8, high oral absorption training set
[8] = Table 6, low oral absorption training set
[9] = Table 9, compounds with low oral absorption

## C=CCc1ccccc1OCC(O)CNC(C)C (stereo not drawn) [alprenolol]
[1]; [6]
  Oral Absorption (%): 96%
[1]; [7]
  Oral Absorption (%): 96%

## CNC1=Nc2ccc(Cl)cc2C(c2ccccc2)=[N+]([O-])C1 [chlorodiazepoxide, chlordiazepoxide]
[1]; [6]
  Oral Absorption (%): 100%
[1]; [7]
  Oral Absorption (%): 100%

## CCC1(c2ccccc2)C(=O)NC(=O)NC1=O [phenobarbital]
[1]; [6]
  Oral Absorption (%): 100%
[1]; [7]
  Oral Absorption (%): 100%

## COc1cc(CC(C)N)c(OC)cc1Br (stereo not drawn) [2,5-dimethoxy-4-bromoamphetamine]
[2]
  Membrane affinity IAM.PE: 3.22
  Membrane binding properties IAM.PE: 20.950
[3]
  Membrane affinity IAM.SM: 1.62
  Membrane binding properties IAM.SM: 20.970
[4]
  Membrane affinity IAM.PS: 4.68
  Membrane binding properties IAM.PS: 143.400
[5]
  Membrane affinity IAM.PC: 2.07
  Membrane binding properties IAM.PC: 15.260

## COc1cc(CC(C)N)c(OC)cc1I (stereo not drawn) [DOI]
[2]
  Membrane affinity IAM.PE: 3.73
[3]
  Membrane affinity IAM.SM: 2.14
[4]
  Membrane affinity IAM.PS: 6.13
[5]
  Membrane affinity IAM.PC: 2.61

## CNC1(c2ccccc2Cl)CCCCC1=O (stereo not drawn) [ketamine]
[1]; [8]
  Oral Absorption (%): 20%
[1]; [9]
  Oral Absorption (%): 20%

## O=C1CN=C(c2ccccc2Cl)c2cc([N+](=O)[O-])ccc2N1 [clonazepam]
[1]; [6]
  Oral Absorption (%): 98%
[1]; [7]
  Oral Absorption (%): 98%

## CCCC(=O)Nc1ccc(OCC(O)CNC(C)C)c(C(C)=O)c1 (stereo not drawn) [acebutolol]
[1]; [8]
  Oral Absorption (%): 37%
[1]; [9]
  Oral Absorption (%): 37%

## CN(C)CCc1c[nH]c2cccc(O)c12 [psilocin]
[2]
  Membrane affinity IAM.PE: 1.79
  Membrane binding properties IAM.PE: 4.818
[3]
  Membrane affinity IAM.SM: 0.502
  Membrane binding properties IAM.SM: 7.532
[4]
  Membrane affinity IAM.PS: 2.80
  Membrane binding properties IAM.PS: 4.941
[5]
  Membrane affinity IAM.PC: 0.900
  Membrane binding properties IAM.PC: 4.656

## COc1cc(CCN)cc(OC)c1OC [mescaline]
[2]
  Membrane affinity IAM.PE: 0.670
  Membrane binding properties IAM.PE: 2.134
[3]
  Membrane affinity IAM.SM: −0.715
  Membrane binding properties IAM.SM: 2.074
[4]
  Membrane affinity IAM.PS: 2.43
  Membrane binding properties IAM.PS: 12.280
[5]
  Membrane affinity IAM.PC: −0.477
  Membrane binding properties IAM.PC: 1.476

## CCOC(=O)C(C)(C)Oc1ccc(Cl)cc1 [clofibrate]
[1]; [6]
  Oral Absorption (%): 95%
[1]; [7]
  Oral Absorption (%): 95%

## COc1cc(C[C@@H](C)N)c(OC)cc1I [(R)-2,5-dimethoxy-4-iodoamphetamine]
[2]
  Membrane binding properties IAM.PE: 29.76
[3]
  Membrane binding properties IAM.SM: 53.41
[4]
  Membrane binding properties IAM.PS: 260.200
[5]
  Membrane binding properties IAM.PC: 55.53

## CNC(=C[N+](=O)[O-])NCCSCc1ccc(CN(C)C)o1 [ranitidie, ranitidine]
[1]; [8]
  Oral Absorption (%): 50%
[1]; [9]
  Oral Absorption (%): 50%

## Clc1cccc(Cl)c1N=C1NCCN1 [clonidine]
[1]; [6]
  Oral Absorption (%): 95%
[1]; [7]
  Oral Absorption (%): 95%

## CCN1CCCC1CNC(=O)c1cc(S(N)(=O)=O)ccc1OC (stereo not drawn) [sulpiride]
[1]; in vivo, po
  Oral Absorption (%): 36%

## COc1cc(CCNC(C)=O)cc(OC)c1OC [n-acetylmescaline]
[2]
  Membrane binding properties IAM.PE: 1.323
[3]
  Membrane binding properties IAM.SM: 1.051
[4]
  Membrane binding properties IAM.PS: 0.736
[5]
  Membrane binding properties IAM.PC: 0.706

## COc1cc([C@@H]2c3cc4c(cc3[C@@H](O[C@@H]3O[C@@H]5CO[C@@H](C)O[C@H]5[C@H](O)[C@H]3O)[C@H]3COC(=O)[C@H]23)OCO4)cc(OC)c1O [etoposide]
[1]; [8]
  Oral Absorption (%): 50%
[1]; [9]
  Oral Absorption (%): 50%

## C[C@]12C[C@H](O)[C@H]3[C@@H](CCC4=CC(=O)CC[C@@]43C)[C@@H]1CC[C@@H]2C(=O)CO [corticosterone]
[1]; [6]
  Oral Absorption (%): 100%
[1]; [7]
  Oral Absorption (%): 100%

## CC(N)Cc1ccc(I)cc1 (stereo not drawn) [p-iodoamphetamine]
[2]
  Membrane binding properties IAM.PE: 33.660
[3]
  Membrane binding properties IAM.SM: 32.410
[4]
  Membrane binding properties IAM.PS: 258.100
[5]
  Membrane binding properties IAM.PC: 24.880

## O=C1NC(=O)C(c2ccccc2)(c2ccccc2)N1 [phenytoin]
[1]; [6]
  Oral Absorption (%): 100%
[1]; [7]
  Oral Absorption (%): 100%

## CC(N)Cc1ccc2c(c1)OCO2 (stereo not drawn) [MDA, 3,4-methylendioxyamphetamine]
[2]
  Membrane affinity IAM.PE: 1.32
[3]
  Membrane affinity IAM.SM: −0.0647
[4]
  Membrane affinity IAM.PS: 3.28
[5]
  Membrane affinity IAM.PC: 0.298
